Assay results: ChEMBL document CHEMBL1146322, “Synthesis and biological evaluation of some 5-ethoxycarbonyl-6-isopropylamino-4-(substitutedphenyl)aminopyrimidines as potent analgesic and anti-inflammatory agents” (Bioorg Med Chem Lett, 2007)

What was measured:
Rattus norvegicus [1] = assay: Antiinflammatory activity in rat at 50 mg/kg, po; format: functional
Mus musculus = assay: Analgesic activity in Albino mouse assessed as inhibition of acetic acid-induced writhing at 50 mg/kg, po; format: functional
Rattus norvegicus [2] = organism: Rattus norvegicus; assay: Toxicity in rat assessed as ulcerogenic potential; format: organism-based; conditions: in vivo

SMILES	inhibition in vivo at 50 mg/kg (Rattus norvegicus [1]) [%]	inhibition in vivo at 50 mg/kg (Mus musculus) [%]	UI (Rattus norvegicus [2])
CCOC(=O)c1c(NC(C)C)ncnc1Oc1ccccc1	55.5	70.2	
Cc1ccc(-c2cc(C(F)(F)F)nn2-c2ccc(S(N)(=O)=O)cc2)cc1 [CELECOXIB]	82.1		0.104
CCOC(=O)c1c(Nc2ccc(C)cc2)ncnc1NC(C)C	89.7	72	0.29
CCOC(=O)c1c(Nc2ccc(OC)cc2)ncnc1NC(C)C	62.7	85.1	
CCOC(=O)c1c(Nc2ccc(S(N)(=O)=O)cc2)ncnc1NC(C)C	87.7	72.6	0.241
O=C([O-])Cc1ccccc1Nc1c(Cl)cccc1Cl.[Na+] [DICLOFENAC SODIUM]		78	0.805
CCOC(=O)c1c(Nc2ccc(Cl)cc2)ncnc1NC(C)C	30.9	70.2	
CCOC(=O)c1c(Nc2ccc([N+](=O)[O-])cc2)ncnc1NC(C)C	84.6	77.4	
